Source: PMC2603313, “Direct Inhibition of GSK3β by the Phosphorylated Cytoplasmic Domain of LRP6 in Wnt/β-Catenin Signaling” (PLoS ONE, 2008)
Entries after “also recorded” stand apart in the source; their conditions may differ. Ends that are not written are not given here.

Experiments:
[1] = system: A549 cells; assay: β-Catenin immunofluorescence in transfected A549 cells; format: cell-based; conditions: GFP fusion
Text: (§1) Figure 1 LRP6 constructs and their cytoplasmic overexpression in cell. (A) Schematic representation of the full-length LRP6 and amino acid sequences of LRP6 intracellular fragments used in this study. The Ser/Thr rich cluster and PPPSPxS motif are underlined in each sequence. Phosphorylated residues are highlighted. (B) Cytosolic overexpression of the LRP6 constructs. A549 cells in which control (empty vector, EV, encoding only GFP), miniCL and miniCLMT were transfected as GFP fusion proteins. Control, miniCL and miniCLMT were detected through the green fluorescence from GFP. β-Catenin was detected using an anti-β-catenin antibody, and the nuclei were detected by DAPI staining. […] Endogenous β-catenin was detected by an anti-β-catenin antibody. p-GS indicates the level of the phosphorylated GS by GSK3β, detected by anti-glycogen synthase (Ser641) antibody. p-S9-GSK3β indicates the phosphorylated Ser9 of GSK3β, and was detected by anti-phospho GSK3β (Ser9) antibody. Levels of transfected proteins were detected using monoclonal GFP antibody, indicated by GFP. Total cellular levels of GS and GSK3β were measured by anti-GS antibody and anti-GSK3β antibody, which are indicated by t-GS and t-GSK3β, respectively. […] (D) Activation of Wnt/β-catenin signaling, which was measured by the Top-flash luciferase activity. […] The luciferase activities were measured after 24 h of the transfection. […]

[2] = system: HepG2 cells; assay: β-Catenin immunofluorescence in transfected HepG2 cells; format: cell-based; conditions: GFP fusion
Description: (§2) pEGFP-miniCL and pEGFP-miniCLMT vectors were transfected into A549 cells and HepG2 cells using jetpei according to the manufacturer's protocol (Polyplus transfection). In brief, 2 µg of DNA and jetpei mixtures were added to A549 cells and HepG2 cell and incubated for 3 h under serum-free conditions, and then equal volumes of DMEM containing 20% serum were added. After 24 h incubation, cells were harvested using RIPA (containing protease cocktail). Subsequently, 20 µg of protein lysates were applied to SDS-PAGE. After transferring the proteins to a PVDF membrane, samples were incubated with the appropriate antibodies, according to standard western blot protocol.
Transfected cells were fixed with 100% methanol for 20 min at −20°C. After washing with PBS and subsequent blocking with blocking buffer (PBS+0.05% BSA), fixed cells were incubated with anti-β-catenin antibody for 2 h at room temperature. […] After washing with PBS, expression of β-catenin, GFP, and DAPI were analyzed using fluorescence microscopy.
Supplementary file pone.0004046.s001.tif: Figure S1 Cytosolic overexpression of the LRP6 constructs in HepG2 cells. […] Control, miniCL and miniCLMT were detected through the green fluorescence from GFP. β-Catenin was detected using an anti-β-catenin antibody, and the nuclei were detected by DAPI staining. […]

[3] = system: A549 cells; assay: Western blot of β-catenin in transfected A549 cells; format: cell-based; conditions: GFP fusion, 24 h
Text: as §1

[4] = system: HepG2 cells; assay: Western blot of β-catenin in transfected HepG2 cells; format: cell-based; conditions: GFP fusion, 24 h
Description: as §2
Supplementary file pone.0004046.s002.tif: Figure S2 Western blotting analysis from the transfected HepG2 cells. Labels at the left side of blots indicate the antibody used for detection of the corresponding protein. The endogenous β-catenin level was detected by an anti-β-catenin antibody. p-GS indicates the level of the phosphorylated GS by GSK3β, detected by anti-glycogen synthase (Ser641) antibody. p-S9-GSK3β indicates the phosphorylated Ser9 of GSK3β, and was detected by anti-phospho GSK3β (Ser9) antibody. Levels of transfected proteins were detected using monoclonal GFP antibody, indicated by GFP. Pan-Ras is shown as a loading control. (0.05 MB TIF) Click here for additional data file.

[5] = system: glycogen synthase; assay: Western blot of phosphorylated glycogen synthase (Ser641) in transfected A549 cells; format: cell-based; conditions: GFP fusion, anti-glycogen synthase (Ser641)
Text: as §1

[6] = system: GSK3β; assay: Western blot of GSK3β phosphorylated at Ser9 in transfected A549 cells; format: cell-based; conditions: GFP fusion
Text: as §1

[7] = system: Wnt/β-catenin signaling; assay: TOP-flash luciferase assay in 293 cells; format: cell-based; conditions: 24 h after transfection, 4 independent experiments, p<0.01 vs empty vector and vs miniCLMT
Text: as §1

[8] = molecular target: T1, GSK3β (Mus musculus, UniProt Q9WV60); assay: Far western binding of GSK3β to miniCL in presence of Axin GBD; conditions: phosphorylated GST-miniCL; GSK3β 0.1 µg/ml; GST-Axin GBD 0, 10 µM; three independent experiments
T1 construct: The catalytic domains of mouse GSK3β (residues 27–393) and CK1ε (residues 1–319) were expressed and purified; made in house
Description: Figure 4 Phosphorylation-dependent binding of the LRP6 intracellular region to GSK3β in the absence and presence of Axin. (A) GST (Lane 1), GST-fused miniCL (Lane 3; GST-miniCL), GST-fused miniCLMT (Lane 5; GST-miniCLMT), and their phosphorylated forms (Lanes 2, 4, 6; indicated by “phos”) were loaded onto an SDS-polyacrylamide gel, and then transferred to PVDF membrane (Left top). […] The phosphorylated protein bands show an upshifted mobility on the gel. The PVDF membrane was incubated with 1 µg/ml of GSK3β to allow GSK3β to bind to the proteins in the membrane. The bound GSK3β was visualized on the transferred proteins by western blotting using an anti-GSK3β antibody (Left bottom), and the GSK3β protein used to obtain the phosphorylated forms of each protein is indicated by GSK3β*. The band intensities of bound GSK3β were measured from the three independent experiments (Right). […] The phosphorylated GST-fused miniCL was transferred to PVDF membrane, and the membrane was incubated with GSK3β (0.1 µg/ml) and GST-fused Axin GBD domain protein (0, 10 µM). Error bars indicate the standard deviation from three independent experiments. […]
GST-fusion proteins (GST-miniCL, GST-miniCLMT, GST-PPPSPxS, GST-PPPAPxS) were subjected to SDS-PAGE and transferred to a PVDF membrane. […] The binding of GSK3β was detected with rabbit anti-GSK3β antibody and secondary HRP-conjugated goat anti-rabbit IgG (Pierce).

[9] = system: LRP6 miniCL; assay: Far western binding of Axin fragment to LRP6 miniCL with GSK3β; design: species or system human; conditions: GST-miniCL 15 µg on PVDF; GSK3β 2 µg/ml and/or His-Axin 12 µg/ml
Description: Figure 4 Phosphorylation-dependent binding of the LRP6 intracellular region to GSK3β in the absence and presence of Axin. (A) GST (Lane 1), GST-fused miniCL (Lane 3; GST-miniCL), GST-fused miniCLMT (Lane 5; GST-miniCLMT), and their phosphorylated forms (Lanes 2, 4, 6; indicated by “phos”) were loaded onto an SDS-polyacrylamide gel, and then transferred to PVDF membrane (Left top). […] The phosphorylated protein bands show an upshifted mobility on the gel. The PVDF membrane was incubated with 1 µg/ml of GSK3β to allow GSK3β to bind to the proteins in the membrane. The bound GSK3β was visualized on the transferred proteins by western blotting using an anti-GSK3β antibody (Left bottom), and the GSK3β protein used to obtain the phosphorylated forms of each protein is indicated by GSK3β*. The band intensities of bound GSK3β were measured from the three independent experiments (Right). […] The phosphorylated GST-fused miniCL was transferred to PVDF membrane, and the membrane was incubated with GSK3β (0.1 µg/ml) and GST-fused Axin GBD domain protein (0, 10 µM). Error bars indicate the standard deviation from three independent experiments. (C) GSK3β mediates the binding of an Axin fragment to LRP6 miniCL region. […]

T1 sequence (Q9WV60 27-393): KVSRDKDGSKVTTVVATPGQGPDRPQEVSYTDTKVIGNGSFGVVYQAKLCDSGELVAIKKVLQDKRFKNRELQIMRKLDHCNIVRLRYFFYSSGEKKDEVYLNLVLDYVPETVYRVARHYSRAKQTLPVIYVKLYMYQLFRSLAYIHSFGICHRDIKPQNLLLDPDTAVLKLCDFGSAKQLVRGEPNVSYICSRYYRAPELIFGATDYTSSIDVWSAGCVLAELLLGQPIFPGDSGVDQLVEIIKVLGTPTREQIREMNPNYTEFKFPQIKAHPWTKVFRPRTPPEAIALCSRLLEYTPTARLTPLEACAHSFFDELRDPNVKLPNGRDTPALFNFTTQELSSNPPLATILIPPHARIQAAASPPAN

Molecule: miniCL: LRP6 miniCL (residues 1470–1510 of human LRP6), GFP fusion in cells (SSSSSSTKGTYFPAILNPPPSPATERSHYTMEFGYSSNSPS; not fully specified; also: GFP fusion in cells (GFP left off))
- Total cellular β-catenin and nuclear translocation [1]: dramatically increased the total amount of cellular β-catenin and promoted the translocation of β-catenin into the nucleus
- Total cellular β-catenin and nuclear translocation [2]: dramatically increased the total amount of cellular β-catenin and promoted the translocation of β-catenin into the nucleus
- β-catenin level (western blot) [3]: increased level of β-catenin
- β-catenin level (western blot) [4]: increased level of β-catenin
- Phosphorylation of glycogen synthase (p-GS) [5]: suppressed phosphorylation of glycogen synthase
- Phosphorylation of Ser9 in GSK3β [6]: without the induction of phosphorylation of Ser9 in GSK3β
- TOP-flash luciferase activity [7]: significantly induced TOP-flash activity; also recorded: significantly activated Wnt/β-catenin signaling
- Effect of Axin GBD on GSK3β binding to miniCL [8]: does not affect the binding of GSK3β; also recorded: not affected by the presence of Axin

B1: Axin fragment: His-tagged Axin fragment (residues 512–650) including the GBD and the β-catenin binding domain (protein, UniProt O35625 512-650, looked up, fragment)
chain: GKHVPKLGLKLDTAGLHHHRHVHHHVHHNSARPKEQMEAEVARRVQSSFSWGPETHGHAKPRSYSENAGTTLSAGDLAFGGKTSAPSKRNTKKAESGKNANAEVPSTTEDAEKNQKIMQWIIEGEKEISRHRKAGHGSS
modifications: His tag
- Binding to LRP6 miniCL [9]: bound to LRP6 miniCL only in the presence of GSK3β; also recorded: bound to the LRP6 miniCL fragment only when GSK3β was co-incubated
